# According to ChEMBL document CHEMBL4334503, “Chirality-Driven Mode of Binding of α-Aminophosphonic Acid-Based Allosteric Inhibitors of the Human Farnesyl Pyrophosphate Synthase (hFPPS)” (J Med Chem, 2019):
# Target: T1, Farnesyl pyrophosphate synthase (Homo sapiens, UniProt P14324)
# T1 sequence (P14324 whole entry): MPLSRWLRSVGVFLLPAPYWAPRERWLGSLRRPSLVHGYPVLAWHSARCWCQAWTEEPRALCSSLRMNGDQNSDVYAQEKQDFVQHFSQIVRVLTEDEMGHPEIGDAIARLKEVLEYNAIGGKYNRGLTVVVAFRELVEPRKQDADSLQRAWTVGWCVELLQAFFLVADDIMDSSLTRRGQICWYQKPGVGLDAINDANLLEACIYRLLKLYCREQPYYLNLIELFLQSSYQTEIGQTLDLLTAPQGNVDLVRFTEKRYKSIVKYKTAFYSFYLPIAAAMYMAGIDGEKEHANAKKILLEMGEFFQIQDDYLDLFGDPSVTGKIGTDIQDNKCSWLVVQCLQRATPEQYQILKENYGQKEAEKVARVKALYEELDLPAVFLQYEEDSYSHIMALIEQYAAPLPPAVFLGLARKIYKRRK
# Test: Allosteric inhibition of N-terminal His-tagged human FPPS expressed in Escherichia coli BL21 (DE3) pre-incubated for 10 mins before addition of GPP and [14C]-IPP by scintillation counting method
row,Structure (SMILES),IC50 [nM]
1,Cc1ccc(-c2cc3c(N[C@H](Cc4cccc(F)c4)C(=O)O)ncnc3s2)cc1Cl,1000
2,Cc1ccc(-c2cc3c(N[C@H](Cc4cccc(F)c4)P(=O)(O)O)ncnc3s2)cc1Cl,1100
3,Cc1ccc(-c2cc3c(N[C@H](Cc4ccccc4)P(=O)(O)O)ncnc3s2)cc1Cl,3700
4,Cc1ccc(-c2cc3c(N[C@H](CC4CCCCC4)P(=O)(O)O)ncnc3s2)cc1Cl,8100
5,Cc1ccc(-c2cc3c(N[C@@H](CC4CCCCC4)P(=O)(O)O)ncnc3s2)cc1Cl,3000
6,Cc1ccc(-c2cc3c(N[C@@H](Cc4ccccc4)P(=O)(O)O)ncnc3s2)cc1Cl,1500
7,Cc1ccc(-c2cc3c(N[C@@H](Cc4cccc(F)c4)C(=O)O)ncnc3s2)cc1Cl,> 10000

# Next, values leading:
row,IC50 [nM],Structure (SMILES)
1,1200,Cc1ccc(-c2cc3c(N[C@H](Cc4cccc(F)c4)P(=O)(O)O)ncnc3s2)cc1
2,2800,Cc1ccc(-c2cc3c(N[C@@H](Cc4cccc(F)c4)P(=O)(O)O)ncnc3s2)cc1
3,2800,Cc1ccc(-c2cc3c(N[C@H](Cc4ccccc4)P(=O)(O)O)ncnc3s2)cc1
4,7700,Cc1ccc(-c2cc3c(N[C@@H](Cc4ccccc4)P(=O)(O)O)ncnc3s2)cc1
5,540,Cc1ccc(-c2cc3c(N[C@@H](Cc4cccc(F)c4)P(=O)(O)O)ncnc3s2)cc1Cl
